Laboratory results published in patent US20220273629A1, “METHODS OF TREATING DISORDERS ASSOCIATED WITH ELEVATED LEVELS OF ANTIBODIES THAT INTERACT WITH THE NMDA RECEPTOR” (Aptinyx Inc., priority 2019, published 2022).

Legend:
[1] = biological target: T1, NR2B surface expression in hNR1/PSD95/NR2B expressing HEK cells (Homo sapiens, UniProt Q13224); assay: β-lactamase assay, NR2B surface expression, compound alone (absence of Ab), wild-type; format: cell-based; conditions: for surface NR2B expression in wild-type NR2B receptors relative to untreated vehicle controls: no antibody, varying concentrations, FIG. 6A-6C
T1 construct: expressed in transfected cells; transient β-lactamase-hGluN2B
T1 sequence (Q13224 27-1484, other chains not shown): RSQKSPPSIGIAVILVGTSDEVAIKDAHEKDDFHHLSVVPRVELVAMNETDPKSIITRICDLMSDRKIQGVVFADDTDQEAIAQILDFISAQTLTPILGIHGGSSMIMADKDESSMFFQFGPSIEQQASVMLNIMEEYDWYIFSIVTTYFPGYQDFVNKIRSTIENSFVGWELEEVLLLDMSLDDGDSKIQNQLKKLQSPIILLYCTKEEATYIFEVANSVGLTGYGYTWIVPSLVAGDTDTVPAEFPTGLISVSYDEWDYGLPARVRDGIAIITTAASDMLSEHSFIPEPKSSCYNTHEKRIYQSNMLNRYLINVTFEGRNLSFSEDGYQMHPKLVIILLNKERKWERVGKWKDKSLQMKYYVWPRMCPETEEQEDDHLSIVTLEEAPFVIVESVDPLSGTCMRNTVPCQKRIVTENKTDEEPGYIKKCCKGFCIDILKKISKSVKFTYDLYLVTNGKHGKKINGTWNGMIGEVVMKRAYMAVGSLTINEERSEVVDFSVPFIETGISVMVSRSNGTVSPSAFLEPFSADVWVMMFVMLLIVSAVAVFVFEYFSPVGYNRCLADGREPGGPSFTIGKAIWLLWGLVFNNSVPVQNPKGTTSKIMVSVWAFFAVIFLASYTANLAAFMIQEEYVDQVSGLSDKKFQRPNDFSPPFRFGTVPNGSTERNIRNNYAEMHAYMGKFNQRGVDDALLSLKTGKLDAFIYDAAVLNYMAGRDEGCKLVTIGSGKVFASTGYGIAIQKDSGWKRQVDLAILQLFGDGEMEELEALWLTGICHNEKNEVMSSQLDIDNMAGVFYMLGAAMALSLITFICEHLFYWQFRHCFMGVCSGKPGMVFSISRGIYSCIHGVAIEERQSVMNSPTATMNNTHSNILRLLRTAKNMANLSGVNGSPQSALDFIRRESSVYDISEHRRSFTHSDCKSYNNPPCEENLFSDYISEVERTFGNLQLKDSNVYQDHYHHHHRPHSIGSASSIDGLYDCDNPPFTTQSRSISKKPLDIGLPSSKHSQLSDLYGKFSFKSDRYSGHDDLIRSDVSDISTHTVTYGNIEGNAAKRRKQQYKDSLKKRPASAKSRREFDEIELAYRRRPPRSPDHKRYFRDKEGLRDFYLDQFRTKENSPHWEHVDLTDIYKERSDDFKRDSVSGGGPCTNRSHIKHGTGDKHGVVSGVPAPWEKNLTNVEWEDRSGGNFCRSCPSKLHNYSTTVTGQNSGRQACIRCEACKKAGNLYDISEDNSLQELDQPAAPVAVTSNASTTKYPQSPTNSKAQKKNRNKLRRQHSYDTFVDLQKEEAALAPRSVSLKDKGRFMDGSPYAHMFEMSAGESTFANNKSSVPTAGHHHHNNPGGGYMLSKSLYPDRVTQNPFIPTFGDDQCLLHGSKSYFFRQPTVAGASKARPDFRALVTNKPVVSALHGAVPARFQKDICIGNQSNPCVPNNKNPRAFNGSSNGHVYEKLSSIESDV
Experimental: (§1) Un-transfected (Untfx) cells were used as a negative control for surface β-lactamase activity.
(§2) hNR1/PSD95/NR2B-expressing HEK cells tagged with a β-lactamase enzyme at the N-terminus of NR2B are incubated with a 1:50 dilution of purified patient serum IgG for 45 min. The cells are washed with buffer to remove antibodies and then incubated for 15 min in the presence or absence of each of compounds A, B, or C at concentrations of 10 fM, 1 pM, 100 pM and 10 nM respectively. After said time, the membrane impermeable substrate nitrocefin and ±each of compounds A, B, and C are added. The NR2B N-terminal β-lactamase cleaves nitrocefin, resulting in a change of absorbance to 486 nm. The absorbance at 486 nm is measured every minute for 30 min.
(§3) Un-transfected (Untfx) cells were used as a negative control for surface β-lactamase activity. Human IgG (Sigma-Aldrich) at a concentration of 0.5 mg/ml was used as a negative control for non-specific receptor internalization.
(§4) HEK293 cells stably expressing human GluN1 and PSD-95 were transiently transfected with hGluN2B tagged at the N-terminus with the β-lactamase enzyme using X-tremeGENE9 transfection reagent (Sigma-Aldrich). Transfected cultures were maintained in media containing ketamine (0.18 mg/ml) to minimize excitotoxicity. Twenty-four hours after transfection, cells were re-plated into poly-d-lysine coated 96-well plates at a concentration of 30,000 cells/well. The following day, cells were washed with buffer (HBSS, 10 mM HEPES, […]) and then incubated with a 1:50 dilution of purified patient IgG for 45 min at 37° C. The cells were washed once with buffer and then incubated for 15 min at 37° C. with buffer ±each of compound A, B and C. Nitrocefin in buffer (100 mM final; Cayman Chemical) ±each of compound A, B and C was added to each well and absorbance at 486 nm was measured every minute for 30 min at 37° C. in a plate reader. Un-transfected (Untfx) cells were used as a negative control for surface β-lactamase activity. Human IgG (Sigma-Aldrich) at a concentration of 0.5 mg/ml was used as a negative control for non-specific receptor internalization. Slopes of optical density are graphed as fold change over vehicle, mean ±SEM (n=8-12). Statistics were determined by one-way ANOVA compared to antibody only (Ab).

[2] = biological target: T1, NR2B surface expression in hNR1/PSD95/NR2B expressing HEK cells; assay: β-lactamase assay, restoration of NR2B surface expression after purified ANRE patient serum IgG; format: cell-based; conditions: 45 min purified patient serum IgG 1:50, then 15 min compound at 10 fM, 1 pM, 100 pM, 10 nM; FIG. 1 / FIG. 3
Experimental: as §1, §2
Slopes of optical density are graphed as fold change over the vehicle. N=8; Statistics were determined by one-way ANOVA compared to antibody only (Ab). * p≤0.05, ** p≤0.01, *** p≤0.001, **** p≤0.0001 (FIG. 1).
as §3
hNR1/PSD95/NR2B expressing HEK cells tagged with a β-lactamase enzyme at the N-terminus of NR2B are incubated with purified patient serum IgG (1:50 dilution) for 45 min. The cells are washed to remove antibodies and then incubated for 15 min in the presence or absence of each of compounds A, B, C, D, E, F, G, and H at concentrations of 10 fM, 1 pM, 100 pM and 10 nM respectively. After said time, nitrocefin in buffer and ±each of compounds A-H are added and the absorbance at 486 nm is measured every minute for 30 min.
Slopes of optical density are graphed as fold change over the vehicle. N=8-12; Statistics were determined by one-way ANOVA compared to antibody only (Ab). * p≤0.05, ** p≤0.01, *** p≤0.001, **** p≤0.0001 (FIG. 3).
as §4

[3] = biological target: T1, NR2B surface expression in hNR1/PSD95/NR2B expressing HEK cells; assay: β-lactamase assay, restoration of NR2B surface expression after ANRE patient CSF; format: cell-based; conditions: after CSF (1:10 dilution) from ANRE patients N1, N2, N3; FIG. 2
Experimental: In this example hNR1/PSD95/NR2B expressing HEK cells tagged with a β-lactamase enzyme at the N-terminus of NR2B are incubated with CSF (1:10 dilution) from each of three individual ANRE patients (N1, N2, and N3).
as §4, with “The cells were washed once with buffer and then incubated for 15 min at 37° C. with buffer ±each of compound A, B and C. Nitrocefin in buffer (100 mM final; Cayman Chemical) ±each of compound A, B and C was added to each well and absorbance at 486 nm was measured every minute for 30 min at 37° C. in a plate reader.” left out

[4] = biological target: T2, NR2B:R393A mutant receptors (Homo sapiens, UniProt Q13224, R393A); assay: β-lactamase assay, NMDAR 2B trafficking in mutant R393A receptors; format: cell-based; conditions: FIG. 6A-6C; for ability to restore cell surface NR2B expression in NR2B:R393A mutant following ANRE patient serum IgG: after exposure to ANRE patient serum IgG
T2 construct: expressed in transfected cells; transient β-lactamase-hGluN2B R393A
T2 sequence (Q13224 27-1484 R393A, other chains not shown): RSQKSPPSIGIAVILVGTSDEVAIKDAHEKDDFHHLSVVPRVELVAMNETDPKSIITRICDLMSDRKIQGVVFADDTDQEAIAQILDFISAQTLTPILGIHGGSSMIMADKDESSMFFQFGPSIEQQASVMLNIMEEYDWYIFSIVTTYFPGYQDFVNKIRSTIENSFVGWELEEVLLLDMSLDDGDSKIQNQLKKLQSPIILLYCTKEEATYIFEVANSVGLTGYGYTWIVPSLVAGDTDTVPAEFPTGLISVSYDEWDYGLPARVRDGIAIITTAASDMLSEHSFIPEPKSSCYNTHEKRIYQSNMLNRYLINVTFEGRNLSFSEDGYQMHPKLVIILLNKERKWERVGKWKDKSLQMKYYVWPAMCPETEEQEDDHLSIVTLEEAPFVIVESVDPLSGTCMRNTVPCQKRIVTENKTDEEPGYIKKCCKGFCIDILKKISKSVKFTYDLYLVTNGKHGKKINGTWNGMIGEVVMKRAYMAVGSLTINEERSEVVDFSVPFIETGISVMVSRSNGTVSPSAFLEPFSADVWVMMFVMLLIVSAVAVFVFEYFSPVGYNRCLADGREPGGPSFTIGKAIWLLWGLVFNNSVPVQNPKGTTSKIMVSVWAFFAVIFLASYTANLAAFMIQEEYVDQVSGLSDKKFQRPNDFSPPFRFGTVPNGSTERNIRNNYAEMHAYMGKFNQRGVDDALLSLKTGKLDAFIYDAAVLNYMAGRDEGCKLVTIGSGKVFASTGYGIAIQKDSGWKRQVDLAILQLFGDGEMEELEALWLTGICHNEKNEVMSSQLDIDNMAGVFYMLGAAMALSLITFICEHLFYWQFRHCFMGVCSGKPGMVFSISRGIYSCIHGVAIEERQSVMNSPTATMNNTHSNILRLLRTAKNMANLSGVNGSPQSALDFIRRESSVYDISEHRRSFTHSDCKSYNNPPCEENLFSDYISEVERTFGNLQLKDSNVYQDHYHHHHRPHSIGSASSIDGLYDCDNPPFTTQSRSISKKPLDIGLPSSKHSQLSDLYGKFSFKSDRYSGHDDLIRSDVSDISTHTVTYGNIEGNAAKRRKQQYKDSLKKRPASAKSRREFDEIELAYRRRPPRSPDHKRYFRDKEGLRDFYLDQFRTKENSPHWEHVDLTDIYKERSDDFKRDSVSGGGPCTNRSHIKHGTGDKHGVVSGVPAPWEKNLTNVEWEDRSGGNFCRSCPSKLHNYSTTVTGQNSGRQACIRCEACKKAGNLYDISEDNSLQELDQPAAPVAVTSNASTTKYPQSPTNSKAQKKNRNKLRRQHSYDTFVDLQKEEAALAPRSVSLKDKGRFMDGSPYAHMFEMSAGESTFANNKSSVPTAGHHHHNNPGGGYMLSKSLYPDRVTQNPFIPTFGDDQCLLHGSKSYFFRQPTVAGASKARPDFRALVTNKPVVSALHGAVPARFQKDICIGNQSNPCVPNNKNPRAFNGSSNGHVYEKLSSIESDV
Experimental: as §3, §4

[5] = biological target: T1, NR2B surface expression in hNR1/PSD95/NR2B expressing HEK cells; assay: β-lactamase assay, restoration of NR2B surface expression after purified ANRE patient serum IgG; format: cell-based; conditions: varying concentrations, FIG. 6A-6C
[6] = tested on: Schaffer collateral-CA1 synapses in hippocampal slices; assay: Hippocampal slice LTP (fEPSP slope) with focal NR1 antibody application; format: cell-based, rat; conditions: 500 nM bath-applied, FIG. 5B
From the text: Two extracellular recording patch pipettes were placed at equal distances (˜500 μm) on either side of a single bipolar stainless steel stimulating electrode (Frederick Haer Inc.). A single test stimulus was applied each 30 seconds, to evoke field excitatory postsynaptic potentials (fEPSPs) recorded simultaneously at the Control and Antibody (Ab) recording sites. […]
LTP was induced by the stimulation of Schaffer collateral axons with high frequency theta burst stimulus trains. The fEPSP slope was measured before and after the induction of LTP in hippocampal slices treated with control, control +NR1Ab, Compound A, or Compound A +NR1Ab.
The experimental protocol to test the effects of focal application of NR1 antibodies on synaptic transmission and long-term potentiation (LTP) of synaptic strength at Schaffer collateral-CA1 synapses in hippocampal slices in vitro is illustrated in FIG. 5A below. […] A single test stimulus was applied each 30 seconds, to evoke field excitatory postsynaptic potentials (fEPSPs) recorded simultaneously at the Control and Antibody (Ab) recording sites. […] Statistics were determined by Student's t-test for unpaired data.

surface NR2B expression in wild-type NR2B receptors relative to untreated vehicle controls [1]	ability to restore cell surface NR2B expression in NR2B:R393A mutant [4]	ability to restore cell surface NR2B expression in NR2B:R393A mutant following ANRE patient serum IgG [4]	increase in cell surface NR2B expression ([1]; 1 pM, in the absence of Ab, positive control, wild-type) [%]	SMILES	restoration of NR2B surface expression to "No Ab" control level [2]	restoration of cell surface NR2B expression to vehicle levels [3]	restoration of NR2B surface expression to "No Ab" control level, wild-type NR2B (Example 6) [5]	rescue of Schaffer collateral-CA1 LTP from acute NMDAR1 antibody effects ([6]; NR1 antibody 1:20 dilution)	magnitude of LTP relative to control ([6]; after high frequency stimulation, no antibody)
increase surface NR2B expression	abolishes the ability	abolishes the ability		CC(C)C(=O)N1CCC[C@@]12CN([C@H](C(N)=O)[C@@H](C)O)C2=O [B]	restore NR2B surface expression to levels observed in the “No Ab” control	restored cell surface NR2B expression to vehicle levels	restore NR2B surface expression to levels observed in the “No Ab” control		
increase surface NR2B expression	abolishes the ability	abolishes the ability		COc1ccc(CN2C[C@@]3(CCNC(=O)C3)C2=O)cc1 [C]	restore NR2B surface expression to levels observed in the “No Ab” control	restored cell surface NR2B expression to vehicle levels	restore NR2B surface expression to levels observed in the “No Ab” control		
increase surface NR2B expression	abolishes the ability	abolishes the ability	~20	CC(C)C(=O)N1CCC[C@]12CN([C@H](C(N)=O)[C@@H](C)O)C2=O [Compound A]	restore NR2B surface expression to levels observed in the “No Ab” control	restored cell surface NR2B expression to vehicle levels	restore NR2B surface expression to levels observed in the “No Ab” control	rescues Schaffer collateral-CA1 LTP	increased the magnitude of LTP
				COc1ccc(CN2C[C@]3(CCNC(=O)C3)C2=O)cc1 [Compound D]	failed to restore NR2B surface expression				
				CC(C)CN1CCC[C@]12CN([C@H](C(N)=O)[C@@H](C)O)C2=O [E]	failed to restore NR2B surface expression				
				CC(C)CN1CCC[C@@]12CN([C@H](C(N)=O)[C@@H](C)O)C2=O [F]	failed to restore NR2B surface expression				
				CC(C)CN1[C@@]2(CC[C@@]13CNC3=O)CNC2=O [G]	failed to restore NR2B surface expression				
				CC(C)CN1[C@]2(CC[C@]13CNC3=O)CNC2=O [H]	failed to restore NR2B surface expression				
